Experimental data as given in paper PMC8288134, “Synthesis, potential antitumor activity, cell cycle analysis, and multitarget mechanisms of novel hydrazones incorporating a 4-methylsulfonylbenzene scaffold: a molecular docking study” (Journal of Enzyme Inhibition and Medicinal Chemistry, 2021).
Where two headings read alike, the source gives them in different places.

Tests used:
K-562 = test system: K-562; set-up: method as in https://dtp.cancer.gov/dtpstandard/dwindex/index.jsp; details: reference drugs, ref https://dtp.cancer.gov/dtpstandard/dwindex/index.jsp; cited from earlier work
EKVX = test system: EKVX; set-up: method as in https://dtp.cancer.gov/dtpstandard/dwindex/index.jsp; details: reference drugs, ref https://dtp.cancer.gov/dtpstandard/dwindex/index.jsp; cited from earlier work
SK-MEL-28 = test system: SK-MEL-28; set-up: method as in https://dtp.cancer.gov/dtpstandard/dwindex/index.jsp; details: reference drugs, ref https://dtp.cancer.gov/dtpstandard/dwindex/index.jsp; cited from earlier work
MALME-3M = test system: MALME-3M; set-up: method as in https://dtp.cancer.gov/dtpstandard/dwindex/index.jsp; details: reference drugs, ref https://dtp.cancer.gov/dtpstandard/dwindex/index.jsp; cited from earlier work
SNB-19 = test system: SNB-19; set-up: method as in https://dtp.cancer.gov/dtpstandard/dwindex/index.jsp; details: reference drugs, ref https://dtp.cancer.gov/dtpstandard/dwindex/index.jsp; cited from earlier work
RXF 393 = test system: RXF 393; set-up: method as in https://dtp.cancer.gov/dtpstandard/dwindex/index.jsp; details: reference drugs, ref https://dtp.cancer.gov/dtpstandard/dwindex/index.jsp; cited from earlier work
[1] = test system: full panel of 59 cancer cell lines; details: cited from earlier work; for GI50: read-out: GI50 MG-MID (full panel mean-graph midpoint), reference drugs, ref https://dtp.cancer.gov/dtpstandard/dwindex/index.jsp; for CC50: read-out: LC50 MG-MID (full panel mean-graph midpoint), reference drugs, ref https://dtp.cancer.gov/dtpstandard/dwindex/index.jsp; for TGI MG-MID (full panel mean-graph midpoint): reference drugs, ref https://dtp.cancer.gov/dtpstandard/dwindex/index.jsp
CAKI-1 = test system: CAKI-1; set-up: method as in https://dtp.cancer.gov/dtpstandard/dwindex/index.jsp; details: reference drugs, ref https://dtp.cancer.gov/dtpstandard/dwindex/index.jsp; cited from earlier work
[2] = test system: breast cancer tumour cell lines; details: cited from earlier work; for GI50: read-out: GI50 (subpanel average), reference drugs, ref https://dtp.cancer.gov/dtpstandard/dwindex/index.jsp; for TGI (subpanel average): reference drugs, ref https://dtp.cancer.gov/dtpstandard/dwindex/index.jsp; for CC50: read-out: LC50 (subpanel average), reference drugs, ref https://dtp.cancer.gov/dtpstandard/dwindex/index.jsp
NCI/ADR-RES = test system: NCI/ADR-RES; set-up: method as in https://dtp.cancer.gov/dtpstandard/dwindex/index.jsp; details: reference drugs, ref https://dtp.cancer.gov/dtpstandard/dwindex/index.jsp; cited from earlier work
[3] = test system: NSC lung cancer tumour cell lines; details: cited from earlier work; for GI50: read-out: GI50 (subpanel average), reference drugs, ref https://dtp.cancer.gov/dtpstandard/dwindex/index.jsp; for CC50: read-out: LC50 (subpanel average), reference drugs, ref https://dtp.cancer.gov/dtpstandard/dwindex/index.jsp; for TGI (subpanel average): reference drugs, ref https://dtp.cancer.gov/dtpstandard/dwindex/index.jsp
IGROV1 = test system: IGROV1; set-up: method as in https://dtp.cancer.gov/dtpstandard/dwindex/index.jsp; details: reference drugs, ref https://dtp.cancer.gov/dtpstandard/dwindex/index.jsp; cited from earlier work
OVCAR-4 = test system: OVCAR-4; set-up: method as in https://dtp.cancer.gov/dtpstandard/dwindex/index.jsp; details: reference drugs, ref https://dtp.cancer.gov/dtpstandard/dwindex/index.jsp; cited from earlier work
TK-10 = test: NCI antitumor screen (SRB); format: cell-based; details: Homo sapiens, one dose 10 µM, read-out: Growth inhibition percentage (GI%)
KM12 = test: NCI antitumor screen (SRB); format: cell-based; details: Homo sapiens, one dose 10 µM, read-out: Growth inhibition percentage (GI%)
MDA-MB-231/ATCC = test: NCI antitumor screen (SRB); format: cell-based; details: Homo sapiens, one dose 10 µM, read-out: Growth inhibition percentage (GI%)
A549/ATCC = test: NCI antitumor screen (SRB); format: cell-based; details: Homo sapiens, one dose 10 µM, read-out: Growth inhibition percentage (GI%)
HCC-2998 = test: NCI antitumor screen (SRB); format: cell-based; details: Homo sapiens, one dose 10 µM, read-out: Growth inhibition percentage (GI%)
NCI-H522 [4] = test: NCI antitumor screen (SRB); format: cell-based; details: Homo sapiens
UACC-62 = test: NCI antitumor screen (SRB); format: cell-based; details: Homo sapiens, one dose 10 µM, read-out: Growth inhibition percentage (GI%)
SN12C = test: NCI antitumor screen (SRB); format: cell-based; details: Homo sapiens, one dose 10 µM, read-out: Growth inhibition percentage (GI%)
NCI-H23 = test: NCI antitumor screen (SRB); format: cell-based; details: Homo sapiens, one dose 10 µM, read-out: Growth inhibition percentage (GI%)
NCI-H322M = test: NCI antitumor screen (SRB); format: cell-based; details: Homo sapiens, read-out: Growth inhibition percentage (GI%)
HCT-116 = test: NCI antitumor screen (SRB); format: cell-based; details: Homo sapiens, read-out: Growth inhibition percentage (GI%)
OVCAR-5 = test: NCI antitumor screen (SRB); format: cell-based; details: Homo sapiens, one dose 10 µM, read-out: Growth inhibition percentage (GI%)
HOP-62 = test: NCI antitumor screen (SRB); format: cell-based; details: Homo sapiens
COX-2 = target: T1, COX-2 (Ovis aries, UniProt P79208); test: biochemical; details: mean of three determinations; read-out: IC50 COX-2 Inhibition
T1 construct: purchased Cayman Chemical 560101
T1 sequence (P79208 17-603): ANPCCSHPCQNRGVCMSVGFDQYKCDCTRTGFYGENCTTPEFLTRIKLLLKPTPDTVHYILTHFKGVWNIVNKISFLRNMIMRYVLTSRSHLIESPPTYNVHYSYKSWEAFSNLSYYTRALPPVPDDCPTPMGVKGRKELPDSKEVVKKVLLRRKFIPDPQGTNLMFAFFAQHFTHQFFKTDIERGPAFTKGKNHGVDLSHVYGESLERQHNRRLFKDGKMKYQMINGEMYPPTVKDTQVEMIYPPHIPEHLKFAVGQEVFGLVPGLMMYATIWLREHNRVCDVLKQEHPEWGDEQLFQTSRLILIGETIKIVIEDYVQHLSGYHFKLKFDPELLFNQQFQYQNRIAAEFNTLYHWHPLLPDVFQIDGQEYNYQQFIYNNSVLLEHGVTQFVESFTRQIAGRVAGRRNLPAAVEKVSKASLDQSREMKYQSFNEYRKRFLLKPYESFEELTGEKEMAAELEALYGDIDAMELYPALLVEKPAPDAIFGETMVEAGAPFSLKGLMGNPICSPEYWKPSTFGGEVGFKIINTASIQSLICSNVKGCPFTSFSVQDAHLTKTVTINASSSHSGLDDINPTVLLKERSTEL
Experimental: had been previously attached to the well. The plate was washed to remove any unbound reagents, and then Ellman’s reagent, containing the substrate of acetylcholine esterase, was added to the well. This enzymatic reaction produced a distinct yellow color that was absorbed in 410 nm. The intensity of the color, determined spectrophotometrically, was proportional to the amount of PG tracer bound to the well, which was inversely proportional to PGs present in the well during the incubation: Absorbance ∝ [Bound PG Tracer] a1/PGs. Percent inhibition was calculated by comparing the treated compound to various control incubations. The test compound […]
inhibition response curve (duplicate determinations). […]

OVCAR-8 = test: NCI antitumor screen (SRB); format: cell-based; details: Homo sapiens, one dose 10 µM, read-out: Growth inhibition percentage (GI%)
M14 = test: NCI antitumor screen (SRB); format: cell-based; details: Homo sapiens, one dose 10 µM, read-out: Growth inhibition percentage (GI%)
NCI-H522 [5] = test system: NCI-H522; set-up: method as in https://dtp.cancer.gov/dtpstandard/dwindex/index.jsp; details: reference drugs, ref https://dtp.cancer.gov/dtpstandard/dwindex/index.jsp; cited from earlier work
[6] = HOP-62, one dose 10 µM, read-out: Growth inhibition percentage (GI%)
[7] = NCI-H522, read-out: Growth inhibition percentage (GI%)
[8] = HOP-62, read-out: Growth inhibition percentage (GI%)

| SMILES | GI50 [1] | CC50 [1] | TGI MG-MID (full panel mean-graph midpoint) [1] | TGI (subpanel average) [2] | CC50 [3] | TGI (subpanel average) [3] | inhibition at 10 µM (TK-10) | inhibition at 10 µM (KM12) | inhibition at 10 µM (MDA-MB-231/ATCC) | inhibition at 10 µM (A549/ATCC) | inhibition at 10 µM (HCC-2998) | inhibition at 10 µM (UACC-62) | inhibition at 10 µM (SN12C) | inhibition at 10 µM (NCI-H23) | inhibition at 10 µM (NCI-H322M; one dose 10 µM) | inhibition at 10 µM (HCT-116) | inhibition at 10 µM (OVCAR-5) | IC50 (COX-2) | inhibition at 10 µM (NCI-H522 [4]; [7]) | inhibition at 10 µM (OVCAR-8) | further results |
| --- | --- | --- | --- | --- | --- | --- | --- | --- | --- | --- | --- | --- | --- | --- | --- | --- | --- | --- | --- | --- | --- |
| Cc1ccc(-c2cc(C(F)(F)F)nn2-c2ccc(S(N)(=O)=O)cc2)cc1 [Celecoxib, celecoxib] | 17.5 µM | 63.3 µM | 34.0 µM | 34.89 µM | 67.1 µM | 41.93 µM |  |  |  |  |  |  |  |  |  |  |  |  |  |  | GI50 (K-562): 10 µM; GI50 (EKVX): 19.9 µM; GI50 (SK-MEL-28): 15.8 µM; GI50 (MALME-3M): 19.9 µM; GI50 (SNB-19): 19.9 µM; GI50 (RXF 393): 15.8 µM; GI50 (CAKI-1): 19.9 µM; GI50 [2]: 17.5 µM; GI50 (NCI/ADR-RES): 15.8 µM; GI50 [3]: 25.1 µM; GI50 (IGROV1): 15.8 µM; GI50 (OVCAR-4): 12.6 µM |
| O=c1[nH]cc(F)c(=O)[nH]1 [Compound 5-Fu, 5-fluorouracil, reference compound] | 0.9 µM | 95.6 µM | 43.4 µM | 68.01 µM | > 100 µM | 80.45 µM | 33.1% | 59.3% | 21.9% | 65.8% | > 100% | 60.3% | 46% | 61% | 40.5% | 82.2% | 55.7% |  |  |  | inhibition at 10 µM (NCI-H522 [4]; NCI-H522, one dose 10 µM, read-out: Growth inhibition percentage (GI%)): 42%; GI50 [2]: 6.87 µM; CC50 [2]: > 100 µM; GI50 [3]: 13.6 µM; inhibition at 10 µM (HOP-62; [6]): 52.2% |
| CS(=O)(=O)c1ccc(C(=O)NN=Cc2cccc3ccccc23)cc1 [Compound 6, 4-(Methylsulfonyl)-N'-(naphthalen-1-ylmethylene)benzohydrazide] |  |  |  |  |  |  | 14.9% | 49.2% | < 10% | 58.7% | 15.5% | 38.4% | 12.6% | 10.4% | < 10% | 38.2% | < 10% | 36.3 ± 2.55 µM | 95.5% | 16.2% | inhibition at 10 µM (HOP-62; [8]): 25.1%; inhibition at 10 µM (M14): 33.2% |
| Cc1ccc(C=NNC(=O)c2ccc(S(C)(=O)=O)cc2)cc1 [Compound 9, N'-(4-Methylbenzylidene)-4-(methylsulfonyl)benzohydrazide] |  |  |  |  |  |  | < 10% | 25.1% | < 10% | 12.7% | < 10% | 19.1% | < 10% | < 10% | < 10% | 13.9% | < 10% | 2.97 ± 0.07 µM | 53.9% | < 10% | inhibition at 10 µM (HOP-62; [6]): < 10%; inhibition at 10 µM (M14): < 10% |
| CS(=O)(=O)c1ccc(C(=O)N/N=C/c2ccccc2O)cc1 [Compound 16] |  |  |  |  |  |  | 54.2% | 65.9% | 52.6% | 61.2% | 52.7% | 83.6% | 41.4% | 45.2% |  | 70.9% | 35.3% | 82.4 ± 3.61 µM | 84.9% | 72.1% | inhibition at 10 µM (NCI-H322M): 61.6%; inhibition at 10 µM (HOP-62; [8]): 71.8%; inhibition at 10 µM (M14): 67.5% |
| CNC(=O)c1cc(Oc2ccc(NC(=O)Nc3ccc(Cl)c(C(F)(F)F)c3)cc2)ccn1 [Sorafenib, sorafenib] | 2.33 µM | 43.1 µM | 9.11 µM | 9.35 µM | 49.1 µM | 7.99 µM |  |  |  |  |  |  |  |  |  |  |  |  |  |  | GI50 (K-562): 3.16 µM; GI50 (EKVX): 2.51 µM; GI50 (SK-MEL-28): 2.51 µM; GI50 (MALME-3M): 1.99 µM; GI50 (SNB-19): 3.16 µM; GI50 (RXF 393): 2.51 µM; GI50 (NCI-H522 [5]): 1.99 µM; GI50 (CAKI-1): 3.16 µM; CC50 [2]: 57.3 µM; GI50 (NCI/ADR-RES): 2.51 µM; GI50 (IGROV1): 2.51 µM; GI50 (OVCAR-4): 3.16 µM |
